Results published in US5679805A, “Photochromic spironaphthopyran compounds” (Vision-Ease Lens, Inc., priority 1995, dated 1997).

Assays:
[1] = fade time T1/2 of chloroform-dissolved photochromic compounds after isolation from ultraviolet light; type: physicochemical; set-up: key to T1/2 (fade time), footnoted reading: *: Fades too fast to obtain readings; details: room temperature (72° F.); for T1/2 (fade time): absorbance of activated form to one half of maximum
Method: Additionally, a purchased sample of 3,3-diphenyl-naphtho-3H[2,1-b]pyran, identified as Comparative Example 2, was dissolved in a separate container of chloroform.
Each of the chloroform-dissolved photochromic compounds of Examples 1-3 and Comparative Examples 1-2 were then irradiated with ultraviolet light with a maximum wavelength of 350 nanometers, and the maximum absorption wavelength λmax was determined for each of the chloroform-dissolved photochromic compound. The fade time, T1/2 was then determined for each of the irradiated compounds. The fade time for a particular chloroform dissolved photochromic compound is defined as the time interval, at room temperature (72° F.), for the absorbance of the activated form of the chloroform-dissolved photochromic compound to decrease to one half of the maximum absorbance, after the photochromic compound is isolated from the activating source of ultraviolet light. The maximum absorption wavelength and fade time determined for each of the irradiated photochromic compounds of Examples 1-3 and Comparative Examples 1-2 are presented in Table 1: […]

[2] = maximum absorption wavelength of chloroform-dissolved photochromic compounds irradiated with ultraviolet light; type: physicochemical; details: for maximum absorption wavelength λmax: Chloroform, maximum wavelength of 350 nanometers; for maximum wavelength of activation vs Comparative Example 1: compared with Comparative Example 1, 3,3-diphenyl-8-methoxy-3H-naphtho[2,1-b]pyran
[3] = cited from earlier work
[4] = color on activation by ultraviolet light; type: physicochemical
[5] = irradiated with ultraviolet light

Row | SMILES | T1/2 (fade time) [1] [s] | maximum absorption wavelength λmax [2, 5] | photochromic at room temperature [3] | T1/2 (fade time), footnoted reading [1] | maximum wavelength of activation vs Comparative Example 1 [2] | activated maximum wavelength of absorption ([2]; dissolved in chloroform, irradiated with ultraviolet light) | color when activated by ultraviolet light ([4]; activated by ultraviolet light) | color of blend with blue-turning photochromic compounds when activated ([4]; blend with blue-turning photochromic compounds, such as substituted spiroindolino naphthoxazine, ultraviolet radiation)
1 | COc1ccc2c3c(ccc2c1)OC(c1ccccc1)(c1ccccc1)C=C3 [Comparative Example 1, 3,3-diphenyl-8-methoxy-3H-naphtho[2,1-b]pyran, reference compound] | 10 |  |  |  |  |  |  | 
2 | C1=CC(c2ccccc2)(c2ccccc2)Oc2ccc3ccccc3c21 [Comparative Example 2, 3,3-diphenyl-naphtho-3H[2,1b]pyran, reference compound] | 13 | 435 | photochromic at room temperature |  |  |  |  | 
3 | C1=CC2(Oc3ccc4c5c(ccc4c31)OC1(C=C5)c3ccccc3-c3ccccc31)c1ccccc1-c1ccccc12 [Example 1] |  | 490 |  | * | longer maximum wavelength of activation |  |  | 
4 | C1=CC2(Oc3ccc4c5c(ccc4c31)OC1(C=C5)c3ccccc3Sc3ccccc31)c1ccccc1Sc1ccccc12 [Example 2] | 1.9 | 502 |  |  | longer maximum wavelength of activation | about 502 nanometers | deep shade of red | intense shade of gray
